Key:
[1] = test system: CrkL (phosphorylation at Y207 by Ab1); assay: AlphaScreen of Ab1 phosphorylation of CrkL at Y207; format: biochemical; conditions: positive hits defined as a 50% decrease in Alpha signal vs DMSO
[2] = target: Ab1 (Homo sapiens, UniProt P00519); assay: Thermal shift assay, Ab1; format: binding
Method: Thermal Shift Assay—Thermal shift assay is a thermal-denaturation assay, which can measure the thermal stability of a tested protein. When a protein of interest is bound to a ligand (or drug), its melting temperature increases. For each single well assay, CrkL (1 μg per well), SYPRO® Orange (1:500 dilution from original stock), candidate drugs (same final concentration as in AlphaScreen) and reaction buffer (1×TBS) were mixed. The total volume for a single well was 10 ul. The assay was quantified by a melt curve on a real-time PCR machine, using melting temperatures from 20° C. to 95° C.
In a thermal shift assay, each tested protein (purified Ab1 or CrkL) has a melting temperature (Tm) detected by a protein stain dye such as Sypro Orange. […] An increase of 2° C. or greater in Tm (stable increase in three independent experiments) was defined as a positive result in these thermal shift assays.

[3] = test system: Hs578T cells; assay: MTT proliferation assay, Hs578T; format: cell-based; conditions: 2.5 μM, 48 hours, vs DMSO
Method: (§1) MTT assay—The MTT assay was used to detect cell proliferation. Briefly, cells were plated in a 96-well plate at a density of 50,000 cells/well in 200 μl of culture medium with candidate drugs to be tested (DMSO as a negative control). The treated cells were incubated for four hours a 37° C. with a 5% CO2 incubator to allow dark crystals to form at the bottom of the wells. After culturing for 48 hours, 10 ml of MTT reagent was added to each well and mixed gently for one minute. After aspirating the culture medium from each well, 100 μl of crystal dissolving solution was added to each well and incubated for 10 minutes at RT. The signal was quantified by measuring the absorbance in each sample at 570 nm using a microplate reader.

[4] = test system: MDA-MB-231 cells; assay: MTT proliferation assay, MDA-MB-231; format: cell-based
Method: as §1
Compound II is referred to as “NC5-SO2F” in FIGS. 7A-7C.
(§2) Cell proliferation was first determined by MTT assay as confirmation. […] CrkL is known to mediate the activation of both Raf/ERK and PI3K pathways. So, proteins that relate to these two pathways were utilized.

[5] = test system: MDA-MB-468 cells; assay: MTT proliferation assay, MDA-MB-468; format: cell-based
Method: as §1, with “After culturing for 48 hours, 10 ml of MTT reagent was added to each well and mixed gently for one minute.” left out
as §2

[6] = test system: PBMCs; assay: MTT assay, PBMCs from healthy donors; format: cell-based, human
Method: Peripheral blood mononuclear cells (PBMCs, line with the symbol □) were used to determine the specificities of the cytotoxic effects of Pomiferin. The survival curve of PBMC-average is from four different healthy donors. […]
as §1, with “After culturing for 48 hours, 10 ml of MTT reagent was added to each well and mixed gently for one minute.” left out

[7] = test system: HCC HepG2 cells; assay: MTT proliferation assay, HepG2; format: cell-based; conditions: 48 hours
Method: as §1

[8] = test system: hematopoietic cancer cell lines (K562, NK92-MI, Daudi, KHYG-1); assay: MTT assay, hematopoietic cancer cell lines; format: cell-based; conditions: five M Pomiferin for three days; compared with MDA-MD-231-LUC
Method: as §1, with “After culturing for 48 hours, 10 ml of MTT reagent was added to each well and mixed gently for one minute.” left out
(§3) To further test the inhibitory specificity of Pomiferin for specific breast cancer cell lines, The survival percentage was compared between different hematopoietic cancer cell lines and healthy PBMCs.

[9] = test system: MDA-231-GFP-LUC cells; assay: MTT assay, MDA-231-GFP-LUC; format: cell-based; conditions: five M Pomiferin for three days
Method: as §1, with “After culturing for 48 hours, 10 ml of MTT reagent was added to each well and mixed gently for one minute.” left out
as §3

[10] = test system: Sk-Hep1 tumor; assay: HCC Sk-Hep1 xenograft model; format: in vivo, NSG mice
Text: To further test whether the tumor growth inhibition effect of NC5 applied to other solid tumors, the HCC-Sk-Hep1cell line and PDAC-BXPC3 cell line xenograft models were used. Subcutaneous injection of 1.5×10^6 SK-Hep1 or BXPC3 cells in NSG mice, Six-ten days after tumor cell injection, the palpable tumor in NSG mice was confirmed.
To test the effects of the disclosed compounds on the xenograft mouse models, the HCC-Sk-Hep1 cell line xenograft model in NSG mice and 4T1-Luc orthotopic syngeneic breast tumor model in Balb/c mice was used. After confirming the palpable tumor in NSG or Balb/c mice. […] Compound III is referred to as “NC5-140-1” and Compound I is referred to as “NC5-140-2” in FIGS. 11A-11C.

[11] = test system: pCrkL in MDA-MB-231-LUC cells; assay: Flow cytometry of intracellular pCrkL/CrkL, MDA-MB-231-LUC; format: cell-based; conditions: three M Pomiferin for six days
Text: The cells were labeled with total CrkL or phosphor-CrkL by Alexa Fluor 647 (AF-647) and stained with secondary antibodies conjugated with AF-647 as staining control. […] The star symbol indicates the significance of vehicle vs. Pomiferin of the indicated concentration. *p<0.05, **p<0.005, ***p<0.0005. Data represent mean±SEM, n=4.
The intracellular pCrkL level from breast cancer cell lines between Pomiferin-treated and vehicle control groups was examined.

[12] = test system: MDA-MB-468 cells; assay: Annexin V/PI apoptosis, MDA-MB-468; format: cell-based; conditions: 10 uM, 24 hours
Method: (§4) Annexin V/PI Staining—Experimental cells were collected, washed with 1×PBS, resuspended in the binding buffer, and stained with an Annexin V-FITC assay Kit (Millipore Sigma). The cells were incubated with 50 μg/ml Annexin V in 1× binding buffer at room temperature for 15 minutes, then 10 μg/ml propidium iodide for another 15 minutes and analyzed by flow cytometry (EPICS XL). Annexin V-positive/PI-negative cells were considered early apoptotic, cells with both Annexin V and PI-positive to be late apoptotic, and Annexin V negative but PI-positive to be “necrotic.” The percent of apoptosis was calculated as the sum of the percentages of both early and late apoptotic cells.
(§5) To figure out the features of cytotoxic effects of Pomiferin on breast cancer cells. Pomiferin-treated breast cancer cells were stained with an Annexin V/PI kit and measured them with Flow Cytometry.

[13] = test system: TNBC cells (MDA-231 and MDA-468); assay: Annexin V/PI apoptosis, TNBC (MDA-231 and MDA-468); format: cell-based; conditions: 1 uM, 24 hours
Method: as §4, §5

[14] = test system: CD147-CAR-NK killing in BXPC3 cells; assay: Cr51 release assay, CD147-CAR-NK killing of BXPC3; format: cell-based; conditions: 1 uM overnight
Method: In this example, activity of NC5 was evaluated for PBNK and CD147-CAR-NK killing in BXPC3 cells. PBNK or CD147-CAR-NK cells were incubated with 1 uM NC5 overnight, then cells were harvested for Cr51 release assay to check cell cytotoxicity. […] The star symbol indicates the significance of vehicle vs. NC5 of the indicated E:T ratios. *p<0.05, **p<0.01, n=3.

Sequence of Ab1 (P00519 whole entry): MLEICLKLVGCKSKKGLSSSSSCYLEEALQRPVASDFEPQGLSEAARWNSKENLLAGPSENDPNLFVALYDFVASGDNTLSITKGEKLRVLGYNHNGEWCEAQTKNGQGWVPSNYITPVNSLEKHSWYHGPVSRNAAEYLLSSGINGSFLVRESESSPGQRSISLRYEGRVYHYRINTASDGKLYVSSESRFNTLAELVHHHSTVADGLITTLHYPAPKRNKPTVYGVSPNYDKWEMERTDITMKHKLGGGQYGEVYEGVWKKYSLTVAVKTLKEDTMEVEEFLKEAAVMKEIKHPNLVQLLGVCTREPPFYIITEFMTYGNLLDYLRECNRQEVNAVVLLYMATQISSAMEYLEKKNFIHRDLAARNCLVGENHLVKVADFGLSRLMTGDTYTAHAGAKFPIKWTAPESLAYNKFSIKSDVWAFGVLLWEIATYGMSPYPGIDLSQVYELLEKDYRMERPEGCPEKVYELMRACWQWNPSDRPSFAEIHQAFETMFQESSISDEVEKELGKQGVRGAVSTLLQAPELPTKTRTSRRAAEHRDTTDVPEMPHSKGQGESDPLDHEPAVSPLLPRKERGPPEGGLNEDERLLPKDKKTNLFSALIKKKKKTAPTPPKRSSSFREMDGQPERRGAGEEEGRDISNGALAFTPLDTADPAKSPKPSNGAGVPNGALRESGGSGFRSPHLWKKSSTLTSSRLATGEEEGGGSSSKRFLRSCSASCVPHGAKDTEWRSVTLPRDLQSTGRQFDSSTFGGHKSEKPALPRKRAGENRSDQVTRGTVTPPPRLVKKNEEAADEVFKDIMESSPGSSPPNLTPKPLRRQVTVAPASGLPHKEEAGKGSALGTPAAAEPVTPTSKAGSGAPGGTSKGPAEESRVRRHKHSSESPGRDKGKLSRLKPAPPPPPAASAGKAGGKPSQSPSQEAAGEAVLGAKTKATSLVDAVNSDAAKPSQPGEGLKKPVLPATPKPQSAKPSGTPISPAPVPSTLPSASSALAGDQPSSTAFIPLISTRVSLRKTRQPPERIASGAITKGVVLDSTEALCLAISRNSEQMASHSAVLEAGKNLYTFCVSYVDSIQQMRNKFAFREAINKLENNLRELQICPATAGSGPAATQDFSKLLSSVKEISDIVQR

CC(C)=CCc1c2c(c3occ(-c4ccc(O)c(O)c4)c(=O)c3c1O)C=CC(C)(C)O2 [Pomiferin, 3′,4′,5-Trihydroxy-6″,6″-dimethyl-6-(3-methylbut-2-en-1-yl)-6″H-pyrano[2″,3″:7,8]isoflavone]
AlphaScreen hit (inhibition of Crk phosphorylation) [1]: identified hit | binding to Ab1 versus Crk (thermal shift) [2]: specifically binds to Crk, but not Ab1 proteins | cell proliferation (MTT) [3]: had an inhibitory effect on proliferation | cell proliferation (MTT) ([4]; 1 uM, 5 uM and 10 uM, 24 hours): significantly inhibited cell proliferation | cell proliferation (MTT) ([4]; 2.5 μM, 48 hours, vs DMSO): blocked cell proliferation | cell proliferation (MTT) ([5]; 1 uM, 5 uM and 10 uM, 24 hours): significantly inhibited cell proliferation | cell proliferation (MTT) ([5]; 2.5 μM, 48 hours, vs DMSO): inhibited cell proliferation | cell proliferation (MTT) ([6]; 1 uM, 5 uM and 10 uM, 24 hours): no statistical difference | IC50 ([6]; Homo sapiens, 72 h, MTT, three days, PBMC average of four healthy donors): > 18 µM | sensitivity to Pomiferin (survival percentage, MTT) ([6]; five M Pomiferin for three days, compared with MDA-MD-231-LUC): more resistant to Pomiferin inhibition | concentration at which HepG2 cell proliferation starts to be significantly inhibited [7]: one | sensitivity to Pomiferin (survival percentage, MTT) [8]: more resistant to Pomiferin inhibition | sensitivity to Pomiferin (survival percentage, MTT) [9]: most sensitive cell to Pomiferin treatment | tumor growth ([10]; Pomiferin administered orally, two-group study): suppressed | tumor growth ([10]; four-group study, 5.0 μg/g oral gavage): inhibit tumor growth | median survival ([10]; four-group study, 5.0 μg/g oral gavage, vehicle 26 days): 34 days | tumor sizes before day 25 of inoculation ([10]; four-group study, administered orally): no significant difference in tumor sizes | median survival, fold longer than vehicle control ([10]; two-group study): 1.54 fold | median survival ([10]; two-group study, 5.0 μg/g oral, vehicle 24 days): 37 days | total CrkL expression [11]: not many differences in total CrkL expression | intracellular pCrkL level ([11]; vs vehicle): reduced the intracellular pCrkL level | percentage of apoptotic cells [12]: significantly increased | apoptosis [13]: significantly induced apoptosis | CD147-CAR-NK killing (Cr51 release) [14]: increased
